From US20120277109A1, “PROXIMITY-MEDIATED ASSAYS FOR DETECTING ONCOGENIC FUSION PROTEINS” (Prometheus Laboratories Inc., priority 2009, published 2012)
Like-named read-outs stand apart in the source and are kept apart here.

How the values were obtained:
[1] = test system: patients with chronic myelogenous leukemia (CML); settings: cited from earlier work
BCR-ABL substrate CRKL = experiment: Sandwich ELISA of total and activated (phosphorylated) CRKL in cancer cell lines after growth factor treatment; type: cell-based, human
[2] = 400 mg/day imatinib, after 7 years

**Q.** What does the source list for `Cc1ccc(NC(=O)c2ccc(CN3CCN(C)CC3)cc2)cc1Nc1nccc(-c2cccnc2)n1` [imatinib]?
**A.** complete cytogenetic response (CCyR) ([1]; 400 mg/day imatinib, % of patients): 70-80%; even free survival rate [1, 2]: 81%; overall survival rate [1, 2]: 90%; relapse rate ([1]; 400 mg/day imatinib, in 5 years): about 30%; loss of CCyR rate ([1]; 400 mg/day imatinib, in the first 3 years): 4 to 7 %/yr; loss of CCyR rate ([1]; 400 mg/day imatinib, thereafter (after first 3 years)): 1 to 2 %/yr; toxicity ([1]; 800 mg/day imatinib compared with 400 mg/day): more toxic; CCyR ([1]; 800 mg/day imatinib): 95%; relapse rate ([1]; 800 mg/day imatinib): 5%; patients who do not achieve durable complete cytogenetic responses ([1]; first line therapy, newly diagnosed patients with CML): 20-25%

**Q.** For `Cc1cn(-c2cc(NC(=O)c3ccc(C)c(Nc4nccc(-c5cccnc5)n4)c3)cc(C(F)(F)F)c2)cn1` [nilotinib], which toxicity ([1]; nilotinib compared with imatinib) is on record?
**A.** more toxic than imatinib

**Q.** For “epidermal growth factor [EGF, stimulatory growth factor]”, which “CRKL activation (i.e., phosphorylation) upon treatment” value (shortened to “CRKL activation”) (BCR-ABL substrate CRKL; A431 cells) is on record?
**A.** activated

**Q.** And the “CRKL activation” value (BCR-ABL substrate CRKL; T47D cells)?
**A.** not activated

**Q.** With heregulin as the compound, how does the “CRKL activation” value (BCR-ABL substrate CRKL; MCF-7 cells) read?
**A.** activated (i.e., phosphorylated) at low levels

**Q.** And the “CRKL activation” value (BCR-ABL substrate CRKL; T47D cells)?
**A.** activated (i.e., phosphorylated) at low levels
